Experimental data: patent publication US20220133747A1, “ESTROGEN RECEPTOR INHIBITORS AND USES THEROF” (The Regents of the University of California, priority 2018, published 2022)

Assays:
[1] = system: ER-dependent transcription; experiment: ERE-luciferase T47D reporter, ER-dependent transcriptional activity; type: cell-based, human; conditions: E2 alone, 2 nM
Protocol: (§1) FIGS. 20A-20C show biologic activity of selected SERD candidates. […] ER-positive MCF-7 cells were treated in phenol-red free RPMI 1640 without FBS and containing vehicle control (CON) or 100 nM concentrations of either fulvestrant (FX) or antiestrogens 105, 109, 121, 140, 151, 160 or SERD128 in vitro. After 4 hours, cells were harvested and processed for PAGE and Western immunoblots using ERα antibody (1D5, Thermofisher Scientific). RPL13A was used as a loading control. […] Cells were dosed with either E2 alone or with SERDs combined with E2 in phenol redfree medium with 0.1% dextran-coated charcoal-treated FBS in luminometer plates. Data are presented as relative light units (RLU) relative to that of E2 alone in three replicate assays (4 wells per replicate) f SEM. Treatment with E2 alone induced a 12-fold induction of ER-dependent luciferase activity quantified as RLU relative to vehicle control-treated samples.
A stable ER-positive T47D ERE luciferase reporter cell line, in which the ERE and the reporter luciferase gene are consistently expressed in the cell line were used in this study (Signosis). […] Lysate was mixed 1:1 with luciferase substrate (Promega), and luminescence was measured using a MLX microtiter plate luminometer (Dynex) and quantified as relative light units (RLU) according to established procedures. Total protein was quantified using BioRad Protein Assay (BioRad).

ERα = biological target: T1, ERα (Homo sapiens, UniProt P03372); experiment: Downregulation of ER protein, PAGE and Western immunoblot in MCF-7 cells; type: cell-based; conditions: 100 nM, 4 hours, phenol-red free medium without FBS
T1 construct: endogenous in cells; host or cells: MCF-7 human breast cancer cells (ATCC)
T1 sequence (P03372 1-595): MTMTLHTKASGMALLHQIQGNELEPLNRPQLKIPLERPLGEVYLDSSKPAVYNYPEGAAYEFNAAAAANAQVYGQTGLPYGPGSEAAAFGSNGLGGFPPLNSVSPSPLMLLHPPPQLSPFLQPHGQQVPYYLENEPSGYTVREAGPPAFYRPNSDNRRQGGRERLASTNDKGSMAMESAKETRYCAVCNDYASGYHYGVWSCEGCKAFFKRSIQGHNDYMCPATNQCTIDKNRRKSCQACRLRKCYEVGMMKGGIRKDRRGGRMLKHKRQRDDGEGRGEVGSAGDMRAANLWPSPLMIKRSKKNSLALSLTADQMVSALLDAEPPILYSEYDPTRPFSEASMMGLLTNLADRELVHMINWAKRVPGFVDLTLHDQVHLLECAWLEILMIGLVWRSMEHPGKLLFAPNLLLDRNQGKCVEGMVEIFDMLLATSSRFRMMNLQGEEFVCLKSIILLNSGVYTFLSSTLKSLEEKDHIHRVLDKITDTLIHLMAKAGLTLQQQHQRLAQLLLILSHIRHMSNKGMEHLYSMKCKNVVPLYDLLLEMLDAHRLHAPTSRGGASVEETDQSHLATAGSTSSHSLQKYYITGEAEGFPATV
Protocol: as §1
MCF7 cells were plated in regular medium. After 24 hrs, cells were incubated in the presence of antiestrogens or fulvestrant for 4 hrs in phenol-red free medium without FBS. Cell lysates were prepared using RIPA buffer, and protein concentration was determined using the BCA Protein Assay Kit (PIERCE/ThermoFisher Scientific). Forty micrograms of total cell protein was resolved by 4-15% SDS-PAGE, transferred to a PVDF membrane and probed with antibody directed against ERα (1D5, 1:100, ThermoFisher cat #MA5-13191). RPL13A (dilution 1:1000, Invitrogen/ThermoFisher cat #PA5-58528) was used as loading control.

ER+ early breast cancer = conditions: cited from earlier work

Structure (SMILES): C[C@]12CC[C@@H]3c4ccc(O)cc4CC[C@H]3[C@@H]1CC[C@@H]2O [E2, estradiol-17β, reference compound]
- induction of ER-dependent luciferase activity (RLU relative to vehicle control) [1]: 12 fold

Structure (SMILES): C[C@]12C[C@H](Oc3ccc(NC(=O)CCCCN4CCCCC4)c(F)c3)[C@@H]3c4ccc(O)cc4CC[C@H]3[C@@H]1CC[C@@H]2O [SERD140, N-(4-(((8S,9S,11S,13S,14S,17S)-3,17-Dihydroxy-13-methyl-7,8,9,11,12,13,14,15,16,17-deca-hydro-6H-cyclopenta[a]phenanthren-11-yl)oxy)-2-fluorophenyl)-5-(piperidin-1-yl)pentan-amide]
- downregulation of ER protein (ERα protein levels) (ERα): most effective in reducing ER protein levels

Structure (SMILES): CC/C(=C(\c1ccccc1)c1ccc(OCCN(C)C)cc1)c1ccccc1 [Tamoxifen]
- reduction in disease recurrence (ER+ early breast cancer): 39%
- reduction in mortality (ER+ early breast cancer): 31%
